Experiments:
5-lipoxygenase (5-LO) [1] = target: T1, 5-lipoxygenase (5-LO) (Rattus norvegicus, UniProt P12527); experiment: RBL-1 cell 5-lipoxygenase and cyclooxygenase - Homogenate (Procedure I); format: biochemical
T1 construct: endogenous in cells; host or cells: intact RBL-1 (rat basophilic leukemia) cells, stimulated with calcium ionophore A23187
T1 sequence (P12527 1-673): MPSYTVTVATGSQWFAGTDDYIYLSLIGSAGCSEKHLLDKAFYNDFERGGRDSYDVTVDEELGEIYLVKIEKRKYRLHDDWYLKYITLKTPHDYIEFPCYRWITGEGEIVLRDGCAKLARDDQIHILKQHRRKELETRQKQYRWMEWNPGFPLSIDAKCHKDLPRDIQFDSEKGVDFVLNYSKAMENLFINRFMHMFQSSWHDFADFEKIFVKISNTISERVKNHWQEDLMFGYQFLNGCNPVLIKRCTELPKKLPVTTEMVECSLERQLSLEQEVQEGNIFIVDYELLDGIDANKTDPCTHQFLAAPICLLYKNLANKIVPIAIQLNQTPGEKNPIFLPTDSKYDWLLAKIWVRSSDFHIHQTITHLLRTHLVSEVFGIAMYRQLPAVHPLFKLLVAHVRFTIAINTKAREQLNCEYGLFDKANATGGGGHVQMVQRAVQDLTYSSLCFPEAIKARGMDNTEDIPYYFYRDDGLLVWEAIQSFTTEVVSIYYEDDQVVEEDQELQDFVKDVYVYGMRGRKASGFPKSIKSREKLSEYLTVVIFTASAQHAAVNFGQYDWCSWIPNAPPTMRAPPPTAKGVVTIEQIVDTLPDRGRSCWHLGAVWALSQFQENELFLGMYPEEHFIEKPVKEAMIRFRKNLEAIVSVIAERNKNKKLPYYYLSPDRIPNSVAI
Experimental: RBL-1 cell 5-lipoxygenase and cyclooxugenase - Homogenate
Rat basophilic leukemia cells (RBL-1; 5×10^7 viable cells/mL) were disrupted by homogenization on ice (four 20 sec bursts) with a Brinkman polytron. […] The homogenate was then centrifuged at 9,220×g for 48 minutes at 4° C. The pellet was discarded and the supernatant was saved as the source of enzymes. The supernatant was pre-incubated for five minutes at 37° C. in the presence of 2 mM of CaCl2 and compound or vehicle (1% DMSO). The conversion of AA into products by CO and LO was initiated by adding 10 μL (50 μCi) of 1-^14 C-AA to each tube and incubated at 37° C. for 20 minutes. The reaction was stopped by adjusting the pH of each sample to 3 to 3.5 with 2M formic acid. Samples were extracted with three volumes of chloroform to isolate the products of 5-LO formed during the reaction. Fractions were dried under nitrogen, then resuspended in 40 μL of chloroform and spotted onto silica gel HL plates. The plates were developed in A-9 solvent. The dried plates were analyzed using a Bioscan Imaging TLC scanner to determine the percentage of radiolabelled M converted to 5-HETE (LO product) and PGD2 (CO product) in each sample.

5-lipoxygenase (5-LO) [2] = target: T1, 5-lipoxygenase (5-LO); experiment: RBL-1 cell 5-lipoxygenase and cyclooxygenase - Whole cells (Procedure II); format: cell-based
Experimental: RBL-1 Cell 5-Lipoxygenase and cyclooxygenase - Whole cells
The ability to inhibit 5-LO and CO in intact RBL-1 cells was also evaluated. […] Cells were collected by centrifugation, washed once in HBSS, and resuspended at a concentration of 1×10^5 cells/mL. Cells were incubated in the presence of vehicle or drug then centrifuged at 800×g for 10 minutes at 4° C. The supernatant was removed by aspiration and the cells were resuspended in 0.5 mL of HBSS. […] The conversion of M to 5-LO products was initiated by the addition of 10 μL (50 uCi) of 1-^14 C-AA. Products were isolated by acidification and extraction, followed by thin layer chromatography analysis as described above. Radioactive areas corresponding to authentic 5-LO (5-HETE) and CO (PGD2) products were quantitated by the Bioscan 2000 Imaging System.

[3] = target: T2, Human Prostaglandin H2 Synthase Typ II (Cox-2) (Homo sapiens, UniProt P35354); experiment: Human Prostaglandin H2 Synthase Typ II (Cox-2) Whole Cell Assay, ECV-304 cells (Procedure III); format: cell-based; details: ECV-304 whole cells; for IC50: PGE2 produced, read-out: Procedure III (COX-2) Wh Cell IC50; for inhibition at 10 µM: read-out: Procedure III (COX-2) Wh Cell, percent inhibition of PGE2 produced
T2 construct: endogenous in cells; host or cells: ECV-304 cells treated with PMA and ionomycin for 16 hours
T2 sequence (P35354 18-604): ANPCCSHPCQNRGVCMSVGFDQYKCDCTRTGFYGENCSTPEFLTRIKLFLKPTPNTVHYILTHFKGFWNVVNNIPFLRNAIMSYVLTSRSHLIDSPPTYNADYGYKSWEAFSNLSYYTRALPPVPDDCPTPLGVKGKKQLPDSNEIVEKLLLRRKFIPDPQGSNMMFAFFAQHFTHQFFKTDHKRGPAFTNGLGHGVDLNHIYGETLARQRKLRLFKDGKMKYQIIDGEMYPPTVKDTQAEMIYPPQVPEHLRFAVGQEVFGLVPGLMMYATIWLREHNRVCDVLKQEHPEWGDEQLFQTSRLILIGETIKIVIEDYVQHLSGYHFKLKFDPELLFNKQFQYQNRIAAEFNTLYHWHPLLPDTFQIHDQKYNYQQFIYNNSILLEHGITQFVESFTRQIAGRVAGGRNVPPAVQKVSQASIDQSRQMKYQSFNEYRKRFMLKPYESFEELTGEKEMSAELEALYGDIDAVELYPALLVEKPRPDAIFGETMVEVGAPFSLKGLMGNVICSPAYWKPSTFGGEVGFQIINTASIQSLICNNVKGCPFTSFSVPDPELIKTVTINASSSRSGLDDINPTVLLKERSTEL
Experimental: Human Prostaglandin H2 Synthase Typ II (Cox-2) Whole Cell Assay (Multiple Concentrations)
ECV-304 (human, endothelial, umbilical cord) cells are maintained in culture in a suitable medium, and are trypsinized and plated at a density of 1×10^6 cells per well of a 6 well plate prior to assay. Approximately 28 hours later, 50 μg/ml PMA and […] ionomycin (both final concentrations) are added to each well and incubated for an additional 16 hours. Vehicle or test compounds are incubated with the cells for five minutes prior to initiation of Cox-2 enzyme activity by the addition of 30 μM arachidonic acid. Ten minutes later, an aliquot of the supernatant is withdrawn and the amount of PGE2 present quantitated by radioimmunoassay. Activity, reported as percent inhibition of PGE2 produced, is calculated as follows: […]

[4] = RBL-1 homogenate supernatant, 5-HETE, read-out: Procedure I (5-LO) Homog. IC50
[5] = intact RBL-1 cells, 5-HETE, read-out: Procedure II (5-LO) Wh Cell IC50

## CS(=O)(=O)Nc1ccc(Oc2ccccc2)s1 [Example 2]
5-lipoxygenase (5-LO) [1]; [4]
  IC50: 70 nM
5-lipoxygenase (5-LO) [2]; [5]
  IC50: 470 nM
[3]
  IC50: 4220 nM

## CS(=O)(=O)Nc1ccc(Oc2cccc(F)c2)s1 [Example 3]
5-lipoxygenase (5-LO) [1]; [4]
  IC50: 160 nM
5-lipoxygenase (5-LO) [2]; [5]
  IC50: 490 nM
[3]
  inhibition at 10 µM: 13%

## CSc1ccc(Oc2ccc(NS(C)(=O)=O)s2)cc1 [Example 4]
5-lipoxygenase (5-LO) [1]; [4]
  IC50: 100 nM
5-lipoxygenase (5-LO) [2]; [5]
  IC50: 660 nM
[3]
  inhibition at 10 µM: 39%

## CS(=O)(=O)Nc1ccc(Oc2ccc(S(C)(=O)=O)cc2)s1 [Example 5]
5-lipoxygenase (5-LO) [1]; [4]
  IC50: 1800 nM
5-lipoxygenase (5-LO) [2]; [5]
  IC50: 38500 nM
[3]
  inhibition at 10 µM: 0%

## CS(=O)(=O)Nc1ccc(Oc2ccc(F)c(Cl)c2)s1 [Example 6]
5-lipoxygenase (5-LO) [1]; [4]
  IC50: 30 nM
5-lipoxygenase (5-LO) [2]; [5]
  IC50: 890 nM
[3]
  IC50: 5300 nM

## COc1ccc(Oc2ccc(NS(C)(=O)=O)s2)cc1 [Example 7]
5-lipoxygenase (5-LO) [1]; [4]
  IC50: 20 nM
5-lipoxygenase (5-LO) [2]; [5]
  IC50: 1450 nM
[3]
  inhibition at 10 µM: 0%

## CS(=O)(=O)Nc1ccc(Oc2cccc(Cl)c2)s1 [Example 8]
5-lipoxygenase (5-LO) [1]; [4]
  IC50: 60 nM
5-lipoxygenase (5-LO) [2]; [5]
  IC50: 500 nM
[3]
  IC50: 10300 nM

## Cc1cccc(Oc2ccc(NS(C)(=O)=O)s2)c1C [Example 9]
5-lipoxygenase (5-LO) [1]; [4]
  IC50: 60 nM
5-lipoxygenase (5-LO) [2]; [5]
  IC50: 660 nM
[3]
  inhibition at 10 µM: 54%

## CS(=O)(=O)Nc1ccc(Oc2cccc(C(F)(F)F)c2)s1 [Example 10]
5-lipoxygenase (5-LO) [1]; [4]
  IC50: 60 nM
5-lipoxygenase (5-LO) [2]; [5]
  IC50: 780 nM
[3]
  IC50: 1020 nM

## Cc1cc(Oc2ccc(NS(C)(=O)=O)s2)ccc1F [Example 11]
5-lipoxygenase (5-LO) [1]; [4]
  IC50: 20 nM
5-lipoxygenase (5-LO) [2]; [5]
  IC50: 310 nM
[3]
  IC50: 1180 nM

## CS(=O)(=O)Nc1ccc(Oc2ccc(Cl)cc2)s1 [Example 12]
5-lipoxygenase (5-LO) [1]; [4]
  IC50: 75 nM
5-lipoxygenase (5-LO) [2]; [5]
  IC50: 660 nM
[3]
  IC50: 18000 nM

## CS(=O)(=O)Nc1ccc(Oc2ccc(Cl)cc2Cl)s1 [Example 13]
5-lipoxygenase (5-LO) [1]; [4]
  IC50: 90 nM
5-lipoxygenase (5-LO) [2]; [5]
  IC50: 650 nM
[3]
  IC50: 5800 nM

## CS(=O)(=O)Nc1ccc(Oc2ccc(F)cc2F)s1 [Example 14]
5-lipoxygenase (5-LO) [1]; [4]
  IC50: 150 nM
5-lipoxygenase (5-LO) [2]; [5]
  IC50: 730 nM
[3]
  IC50: 1970 nM

## Cc1cccc(Oc2ccc(NS(C)(=O)=O)s2)c1 [Example 15]
5-lipoxygenase (5-LO) [1]; [4]
  IC50: 120 nM
5-lipoxygenase (5-LO) [2]; [5]
  IC50: 310 nM
[3]
  IC50: 1690 nM

## Cc1cc(F)ccc1Oc1ccc(NS(C)(=O)=O)s1 [Example 16]
5-lipoxygenase (5-LO) [1]; [4]
  IC50: 90 nM
5-lipoxygenase (5-LO) [2]; [5]
  IC50: 1090 nM
[3]
  IC50: 1900 nM

## CS(=O)(=O)Nc1ccc(Oc2ccc(F)cc2Br)s1 [Example 17]
5-lipoxygenase (5-LO) [1]; [4]
  IC50: 60 nM
5-lipoxygenase (5-LO) [2]; [5]
  IC50: 1400 nM
[3]
  IC50: 5290 nM

## CS(=O)(=O)Nc1ccc(Oc2cc(C(F)(F)F)cc(C(F)(F)F)c2)s1 [Example 18]
5-lipoxygenase (5-LO) [1]; [4]
  IC50: 310 nM
5-lipoxygenase (5-LO) [2]; [5]
  IC50: 6500 nM
[3]
  inhibition at 10 µM: 8%

## CS(=O)(=O)Nc1ccc(Oc2cc(C(F)(F)F)ccc2Cl)s1 [Example 19]
5-lipoxygenase (5-LO) [1]
  IC50: 140 nM
5-lipoxygenase (5-LO) [2]
  IC50: 1800 nM
[3]
  inhibition at 10 µM: 29%

## CC(C)c1cccc(Oc2ccc(NS(C)(=O)=O)s2)c1 [Example 20]
5-lipoxygenase (5-LO) [1]; [4]
  IC50: 610 nM
5-lipoxygenase (5-LO) [2]; [5]
  IC50: 4700 nM
[3]
  inhibition at 10 µM: 36%

## CS(=O)(=O)Nc1ccc(Oc2cccc3ccccc23)s1 [Example 21]
5-lipoxygenase (5-LO) [1]; [4]
  IC50: 70 nM
5-lipoxygenase (5-LO) [2]; [5]
  IC50: 800 nM
[3]
  IC50: 3000 nM

## CS(=O)(=O)Nc1ccc(Oc2ccc3ccccc3c2)s1 [Example 22]
5-lipoxygenase (5-LO) [1]; [4]
  IC50: 60 nM
5-lipoxygenase (5-LO) [2]; [5]
  IC50: 770 nM
[3]
  IC50: 10000 nM

## CS(=O)(=O)Nc1ccc(Oc2cccc3c2CCCC3)s1 [Example 23]
[3]
  IC50: 10000 nM

## CCCCS(=O)(=O)Nc1ccc(Oc2ccccc2)s1 [Example 24]
5-lipoxygenase (5-LO) [1]; [4]
  IC50: 360 nM
5-lipoxygenase (5-LO) [2]; [5]
  IC50: 1120 nM
[3]
  IC50: 10000 nM

## CC(C)S(=O)(=O)Nc1ccc(Oc2ccccc2)s1 [Example 25]
5-lipoxygenase (5-LO) [1]; [4]
  IC50: 50 nM
5-lipoxygenase (5-LO) [2]; [5]
  IC50: 1040 nM
[3]
  inhibition at 10 µM: 16%

## CCCCCCCCS(=O)(=O)Nc1ccc(Oc2ccccc2)s1 [Example 26]
5-lipoxygenase (5-LO) [1]; [4]
  IC50: 300 nM
5-lipoxygenase (5-LO) [2]; [5]
  IC50: 2900 nM
[3]
  inhibition at 10 µM: 8%

## O=S(=O)(Nc1ccc(Oc2ccccc2)s1)c1ccccc1 [Example 27]
5-lipoxygenase (5-LO) [1]; [4]
  IC50: 100 nM
5-lipoxygenase (5-LO) [2]; [5]
  IC50: 900 nM
[3]
  inhibition at 10 µM: 44%

## CS(=O)(=O)Nc1ccc(Sc2ccccc2)s1 [Example 28]
5-lipoxygenase (5-LO) [1]; [4]
  IC50: 190 nM
5-lipoxygenase (5-LO) [2]; [5]
  IC50: 700 nM
[3]
  inhibition at 10 µM: 33%

## CS(=O)(=O)Nc1ccc(SC2CCCCC2)s1 [Example 29]
5-lipoxygenase (5-LO) [1]; [4]
  IC50: 70 nM
5-lipoxygenase (5-LO) [2]; [5]
  IC50: 2390 nM
[3]
  IC50: 9100 nM

## CCCCCSc1ccc(NS(C)(=O)=O)s1 [Example 30]
5-lipoxygenase (5-LO) [1]; [4]
  IC50: 40 nM
5-lipoxygenase (5-LO) [2]; [5]
  IC50: 630 nM
[3]
  IC50: 2760 nM

## CS(=O)(=O)Nc1ccc(Cc2ccccc2)s1 [Example 31, N-(5-Benzylthien-2-yl)methanesulfonamide]
5-lipoxygenase (5-LO) [1]; [4]
  IC50: 110 nM
5-lipoxygenase (5-LO) [2]; [5]
  IC50: 380 nM
[3]
  inhibition at 10 µM: 45%
